± gives the uncertainty stated by the source.
Assay: xn = mol fraction of the nth substance listed

CC(C)O + CCCCCCC
viscosity [mPa·s], 101 kPa
Conditions	x2 = 0.1003	x2 = 0.2009	x2 = 0.3009	x2 = 0.398	x2 = 0.5002	x2 = 0.5961	x2 = 0.6981	x2 = 0.8014	x2 = 0.9084
293.15 K	1.596 ± 0.019	1.178 ± 0.014	0.9242 ± 0.011	0.7437 ± 0.009	0.6223 ± 0.0076	0.5479 ± 0.0068	0.493 ± 0.0062	0.4607 ± 0.0059	0.436 ± 0.0056
298.15 K	1.413 ± 0.017	1.044 ± 0.013	0.8165 ± 0.0098	0.6851 ± 0.0083	0.5866 ± 0.0072	0.5025 ± 0.0063	0.4623 ± 0.0058	0.4268 ± 0.0055	0.4025 ± 0.0052
303.15 K	1.23 ± 0.015	0.927 ± 0.011	0.7388 ± 0.0089	0.62 ± 0.0076	0.5333 ± 0.0066	0.4679 ± 0.0058	0.4351 ± 0.0055	0.4137 ± 0.0053	0.3897 ± 0.0051
308.15 K	1.091 ± 0.013	0.8401 ± 0.01	0.6728 ± 0.0081	0.577 ± 0.007	0.4915 ± 0.0061	0.4441 ± 0.0056	0.4083 ± 0.0052	0.3805 ± 0.0049	0.3637 ± 0.0048

N#CCc1ccccc1 + ClC(Cl)C(Cl)Cl
Conditions	viscosity [mPa·s]
313.15 K, 101 kPa, x1 = 0.7131	1.645 ± 0.021

CCCCCl + CC(C)CO
viscosity [mPa·s], 101 kPa
Conditions	x1 = 0.0951	x1 = 0.2057	x1 = 0.3038	x1 = 0.4102	x1 = 0.5035	x1 = 0.6121	x1 = 0.7033	x1 = 0.8022	x1 = 0.9043
298.15 K	2.41 ± 0.022	1.677 ± 0.015	1.261 ± 0.011	0.9677 ± 0.0088	0.7931 ± 0.0072	0.6506 ± 0.006	–	0.5 ± 0.1	0.4513 ± 0.0043
313.15 K	1.576 ± 0.017	1.152 ± 0.011	0.9054 ± 0.0087	0.7239 ± 0.0069	0.6137 ± 0.0059	0.5199 ± 0.005	0.4687 ± 0.0045	0.4153 ± 0.0041	0.3832 ± 0.0038

CC1CCCCC1 + c1ccccc1
303.15 K, 101 kPa
Conditions	viscosity [mPa·s]
x1 = 0.203	0.5138 ± 0.0038
x1 = 0.2997	0.5057 ± 0.0038
x1 = 0.4008	0.5059 ± 0.0038
x1 = 0.5041	0.5117 ± 0.0038
x1 = 0.604	0.5205 ± 0.0039
x1 = 0.7992	0.5611 ± 0.004
x1 = 0.9027	0.5961 ± 0.0042

Cc1cccc([N+](=O)[O-])c1 + CCCCCC
303.15 K, 101.33 kPa
Conditions	viscosity [mPa·s]
x1 = 0.199	0.38 ± 0.008
x1 = 0.416	0.58 ± 0.01
x1 = 0.591	0.77 ± 0.011
x1 = 0.802	1.11 ± 0.013

CCCNCCC + CCCCOCCOCCO
viscosity [mPa·s], 100 kPa
Conditions	298.15 K	303.15 K	308.15 K
x2 = 0.05007	0.5938 ± 0.15	0.5507 ± 0.15	0.5178 ± 0.15
x2 = 0.1002	0.6906 ± 0.15	0.6377 ± 0.15	0.5959 ± 0.15
x2 = 0.1502	0.8054 ± 0.15	0.7394 ± 0.15	0.6889 ± 0.15
x2 = 0.2	0.9457 ± 0.15	0.8562 ± 0.15	0.7964 ± 0.15
x2 = 0.3001	1.339 ± 0.15	1.183 ± 0.15	1.093 ± 0.15
x2 = 0.3999	1.79 ± 0.15	1.571 ± 0.15	1.437 ± 0.15
x2 = 0.4999	2.311 ± 0.15	1.998 ± 0.15	1.819 ± 0.15
x2 = 0.5997	2.952 ± 0.15	2.519 ± 0.15	2.248 ± 0.15
x2 = 0.7	3.584 ± 0.15	3.042 ± 0.15	2.71 ± 0.15
x2 = 0.7999	4.119 ± 0.15	3.507 ± 0.15	3.124 ± 0.15
x2 = 0.8998	4.617 ± 0.15	3.926 ± 0.15	3.5 ± 0.15
x2 = 0.9491	4.857 ± 0.15	4.132 ± 0.15	3.683 ± 0.15

CCOC(=O)[C@@H](O)[C@H](O)C(=O)OCC + CC(C)CO
viscosity [mPa·s], 101 kPa
Conditions	x1 = 0.1	x1 = 0.2	x1 = 0.3001	x1 = 0.3999	x1 = 0.5	x1 = 0.6001	x1 = 0.6989	x1 = 0.7998	x1 = 0.8994
293.15 K	5.103 ± 0.041	7.263 ± 0.059	10.49 ± 0.086	15.86 ± 0.13	24.25 ± 0.2	34.35 ± 0.29	50.55 ± 0.42	88.25 ± 0.97	140.9 ± 2.2
298.15 K	4.28 ± 0.035	5.98 ± 0.049	8.485 ± 0.07	12.38 ± 0.1	18.34 ± 0.15	25.34 ± 0.22	36.11 ± 0.31	59.79 ± 0.52	91.12 ± 1
303.15 K	3.601 ± 0.03	4.928 ± 0.041	6.848 ± 0.056	9.831 ± 0.082	14.09 ± 0.12	19.07 ± 0.16	26.5 ± 0.23	42.09 ± 0.37	62.16 ± 0.56
308.15 K	3.052 ± 0.025	4.111 ± 0.034	5.611 ± 0.046	7.889 ± 0.066	11.06 ± 0.093	14.71 ± 0.12	19.99 ± 0.17	30.63 ± 0.27	43.93 ± 0.4
313.15 K	2.607 ± 0.022	3.444 ± 0.029	4.609 ± 0.038	6.39 ± 0.053	8.797 ± 0.074	11.53 ± 0.098	15.38 ± 0.13	22.88 ± 0.2	31.96 ± 0.29
318.15 K	2.249 ± 0.019	2.956 ± 0.025	3.912 ± 0.033	5.322 ± 0.045	7.201 ± 0.061	9.298 ± 0.08	12.19 ± 0.11	17.64 ± 0.16	24.09 ± 0.22
323.15 K	1.973 ± 0.017	2.567 ± 0.022	3.358 ± 0.028	4.497 ± 0.038	5.991 ± 0.051	7.637 ± 0.066	9.865 ± 0.086	13.94 ± 0.12	18.67 ± 0.17

— the CheMixHub viscosity set
